Blank lines part the entries; values can stand above or below the compound they belong to.
Columns and labels:
Format in all cases: biochemical
[1] = molecular target: T1, NAMPT (nicotinamide phosphoribosyltransferase) (Homo sapiens, UniProt P43490); assay: NMN production LC-MS/MS assay with […] NAD+ (feedback inhibition)
T1 construct: recombinant, N-terminal His tag removed with thrombin

[2] = molecular target: T1, NAMPT (nicotinamide phosphoribosyltransferase); assay: LC-MS/MS of the reversible reaction; suppresses pHisNAMPT in western blot and blunts P3 production
[3] = molecular target: T1, NAMPT (nicotinamide phosphoribosyltransferase); assay: dose-dependent protein thermal shift and stimulation of NMN production
[4] = molecular target: T1, NAMPT (nicotinamide phosphoribosyltransferase); assay: NMN production fluorescence assay at […] compound (slight inhibition)
[5] = molecular target: T1, NAMPT (nicotinamide phosphoribosyltransferase); assay: spin desalting column with LC-MS detection of bound compound; EC50 from NMN production activation assay
Excerpt: spin desalting column with LC-MS detection of bound compound; EC50 from NMN production activation assay on NAMPT (nicotinamide phosphoribosyltransferase) | When NAMPT and SBI-797812 were mixed and applied to the column, SBI-797812 was detected in the column eluent

T1 sequence (P43490 whole entry): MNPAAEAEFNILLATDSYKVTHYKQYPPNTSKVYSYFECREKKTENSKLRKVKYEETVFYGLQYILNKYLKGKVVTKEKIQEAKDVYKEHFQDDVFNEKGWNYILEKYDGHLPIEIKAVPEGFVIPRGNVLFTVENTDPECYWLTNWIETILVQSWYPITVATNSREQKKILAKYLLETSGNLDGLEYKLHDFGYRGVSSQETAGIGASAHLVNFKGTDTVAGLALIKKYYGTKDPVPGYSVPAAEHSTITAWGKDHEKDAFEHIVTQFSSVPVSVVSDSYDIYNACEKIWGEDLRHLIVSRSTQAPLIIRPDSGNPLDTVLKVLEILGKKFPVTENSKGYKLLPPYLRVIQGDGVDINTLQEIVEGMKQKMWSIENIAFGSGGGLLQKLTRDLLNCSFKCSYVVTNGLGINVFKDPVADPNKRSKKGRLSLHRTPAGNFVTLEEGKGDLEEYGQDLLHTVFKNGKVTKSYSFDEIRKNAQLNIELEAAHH

SMILES: NC(=O)c1ccc[n+]([C@@H]2O[C@H](COP(=O)([O-])OP(=O)(O)OC[C@H]3O[C@@H](n4cnc5c(N)ncnc54)[C@H](O)[C@@H]3O)[C@@H](O)[C@H]2O)c1 [NAD^+]
NMN production LC-MS/MS assay with 250 μM NAD+ (feedback inhibition) [1]: SBI-797812 relieved NAMPT inhibition mediated by NAD^+ (Fig. 2e).

SMILES: NC(=O)c1ccc[n+]([C@@H]2O[C@H](COP(=O)([O-])O)[C@@H](O)[C@H]2O)c1 [NMN]
LC-MS/MS of the reversible reaction; suppresses pHisNAMPT in western blot and bl [2]: While the pHisNAMPT band was suppressed by NMN or PP, NAM or PRPP had no effect

SMILES: CCOC(=O)c1ccc(NC(=O)NCc2ccncc2)cc1 [SBI-136892]
dose-dependent protein thermal shift and stimulation of NMN production [3]: SBI-136892 (Fig. 1b), dose-dependently increased the NAMPT Tm (Supplementary Fig. 1a) and stimulated NAMPT-mediated NMN production

SMILES: O=C(NCc1ccccn1)Nc1ccc(S(=O)(=O)N2CC3CCC(C2)O3)cc1 [SBI-796950]
NMN production fluorescence assay at 2 μM compound (slight inhibition) [4]: The SBI-797812 isomer with the 2-pyridyl group, SBI-796950 (Fig. 1b), slightly inhibited NMN production (Fig. 1c).

EC50 [5]: 370 ± 60 nM
SMILES: O=C(NCc1ccncc1)Nc1ccc(S(=O)(=O)N2CC3CCC(C2)O3)cc1 [SBI-797812]

— publication PMC6642140, “Boosting NAD^+ with a small molecule that activates NAMPT” (Nature Communications, 2019)
